The values that follow come from PMC2708596 (Toxicological Sciences, 2009).

Like-named read-outs stand apart in the source and are kept apart here.

The conditions of series [1]: Male rat, Liver; estragole metabolites; ref Punt et al. (2008); cited from earlier work.
For series [2] the following is noted: Male rat, Lung, ref Punt et al. (2008), cited from earlier work.
Series [3] can be described thus: PBBK model for estragole in human. The following applies: 0.001 mg/kg bw, after 8 h, compared with Sangster et al., 1987.
The conditions of series [4]: Male rat, Kidney, ref Punt et al. (2008), cited from earlier work.
Series [5] is described as follows: Phase I metabolism of estragole by human liver microsomes. The series is classed as in vitro ADME.
For series [6] the following is noted: rats, 0.05 mg/kg bw; ref Anthony et al., 1987; cited from earlier work.
For series [7] the following is noted: humans, ref Sangster et al., 1987, cited from earlier work.

Take `C=CCc1ccc(O)cc1` [4-allylphenol]: the Catalytic efficiency in series [1] was 3 ml h^−1 (g liver)^−1; in series [2] it was 1600 ml h^−1 (g liver)^−1; in series [4], 400 ml h^−1 (g liver)^−1; in series [5] (Human, Liver, estragole metabolites, scaled Vmax (app)/Km(app)) it was 2 ml h^−1 (g liver)^−1. Moreover, the “Scaled Vmax (app)” value in series [1] was 1.6 μmol h^−1 (g tissue)^−1; in series [2] (microsomal protein yield 20 mg/g), 0.8 μmol h^−1 (g tissue)^−1; in series [4] (microsomal protein yield 7 mg/g) it was 0.2 μmol h^−1 (g tissue)^−1; in series [5] (Human, Liver, estragole metabolites, microsomal protein yield 32 mg/g), 0.7 μmol h^−1 (g tissue)^−1. The Michaelis constant (Km) in series [2] (read-out: Km (app)) and in series [4] (read-out: Km (app)) was 0.5 µM in each case. Besides, the “predicted formation compared with the reported in vivo level” value in series [3] is “fourfold lower”. In series [5] (Vmax (app)/Km(app) × 1000 μl/ml), the “In vitro catalytic efficiency” value is listed as 1.3 μl min^−1 (mg microsomal protein)^−1.
For the compound `C=CCc1ccc(OC)cc1` [estragole, 4-allylanisol], the “oral dose accounted for by O-demethylation” value in series [6] is listed as 53 % of the oral dose. In addition, the “dose excreted as 14CO2 (level of O-demethylation)” value in series [7] (0.001 mg/kg bw, after 8 h) is ~10 % of the dose. For the same compound, the “radioactivity excreted in the urine” value in series [7] (0.001 mg/kg bw, after 8 h) was 31–37 % of the dose; in series [7] (0.001 mg/kg bw, after 24 h) it was 47–53 % of the dose; in series [7] (0.001 mg/kg bw, after 48 h) it was 54–62 % of the dose. In addition, the radioactivity not recovered in series [7] (within 48 h) is around 30%.
